Reference: US4956367A, “2-amino-4-morpholino-6-propyl-1,3,5-triazines” (U C B S.A., priority 1988, dated 1990)

Legend:
[1] = system: amnesia induced by scopolamine; assay: Multiple-trial passive avoidance: mnemic retention, amnesia induced by scopolamine; assay type: in vivo, male Sprague-Dawley rats; conditions: rats
Procedure: 4. Multiple-trial passive avoidance. The compounds of the present invention have been studied with the aim of
Columns 3 and 4 show the results obtained in the test used to evaluate the learning. The figures indicate the average number of trials needed for a control animal (group 1) or an animal treated (group 2) with the compound to learn to remain on the rubber mat for 180 seconds in order to avoid the electric shock. The results were analyzed by the Student test.

[2] = system: tremogenic effect of oxotremorine; assay: Potentiation of the cholinergic effects of oxotremorine: tremogenic (central) effect; assay type: in vivo, male NMRI mice; conditions: mice
Procedure: (§1) 1. Potentiation of the cholinergic effects of oxotremorine. […] The degree of peripheral cholinergic activation is measured by the salivatory effect quantified by the following rating system:
The degree of central cholinergic activation is measured by the tremogenic effect quantified by the following rating system:
score 1: slight and periodic occasional tremors;
score 2: moderate and slight tremors often repeated;
score 4: accentuated tremors, but interrupted by periods of calm:
score 6: very accentuated and almost continuous tremors.
(§2) Male NMRI mice (20 to 25 g) are divided into four groups of five animals, that is to say: one control group and three treated groups. The compound to be tested is administered intraperitoneally (to the three treated groups) 20 minutes before the administration of the oxotremorine, at a dose which differs for each of the treated groups. […] For each of the groups, the individual scores recorded at each observation period are summed; this enables to plot a curve showing the sum of the scores as a function of time, which is characteristic for each group.
(§3) The mean values of the areas under the curves obtained for each of the treated groups are compared with the mean value of the area under the curve corresponding to the control group and is subjected to statistical analysis by the Mann-Whitney method. From this comparison, a "minimum active dose" can be determined. […]

[3] = system: salivatory effect of oxotremorine; assay: Potentiation of the cholinergic effects of oxotremorine: salivatory (peripheral) effect; assay type: in vivo, male NMRI mice; conditions: mice
Procedure: as §1
score 1: a little saliva is found around the teeth:
score 2: the saliva forms a narrower band around the mouth;
score 4: the saliva wets a surface underneath the chin;
score 6: the saliva runs from the mouth, for example onto the forelegs.
The intermediate scores are not used, and the saliva is wiped away after each observation.
as §2, §3

[4] = system: effects of scopolamine on the band from 6.4 to 9.6 Hz in the EEG; assay: Inhibition of the effects of scopolamine on the electroencephalogram (EEG); assay type: in vivo, male albino Sprague-Dawley rats; set-up: inhibition: dose or concentration left out as unconfirmed
Procedure: Male albino Sprague-Dawley SPF rats (160 to 200 g) are used in this test. When the animals are 3 months old, 5 cortical electrodes are implanted permanently, aseptically and under a general anesthesia: one inert electrode, one left and one right frontal electrode, and one left and one right occipital electrode (P. ETEVENON, loc.cit.). The test is carried out when the animals are about 15 months old. In the meantime, the animals are kept in individual cages. They are given water and food ad libitum and are subjected to a regular daily cycle comprising a period of darkness between 6 o'clock in the evening and 6 o'clock in the morning. At the same time, the animals are progressively acclimatized to the cages of the sound-proof cabin which they will subsequently occupy for recording of the electroencephalograms, as well as to the experimental conditions, by intraperitoneal administration of placebo. The products are administered immediately before the EEG is recorded. The rats are divided into groups of 8 animals and 16 samples of the EEG spectra are recorded over 5 seconds (two EEG spectra per animal). The spectra obtained are then analyzed by computer (rapid Fourier transform), which enables the average of the 16 measurements performed to be determined for each group and the overall intensity of the EEG spectrum and the distribution of this intensity (in %) in the various frequency bands to be deduced for each animal. This operation (recording of the spectra) is repeated 9 times (total

[5] = system: hyperactivity induced by scopolamine; assay: Inhibition of hyperactivity induced by scopolamine; assay type: in vivo, male Sprague-Dawley rats; conditions: rats, administered more than 15 minutes before the measurements
[6] = 20 minutes after administration at the minimum active dose

CN1[C@@H]2C[C@@H](OC(=O)[C@H](CO)c3ccccc3)C[C@H]1[C@@H]1O[C@@H]12 [scopolamine]
amnesing effect ([1]; group 3, scopolamine alone): very pronounced

O=C1CCCN1CC#CCN1CCCC1 [oxotremorine]
minimal effective dose ([2]; Mus musculus, ip, intraperitoneal, read-out: minimum dose of oxotremorine which causes tremors): ~0.05 mg/kg | minimal effective dose ([3]; Mus musculus, ip, intraperitoneal, read-out: minimum dose of oxotremorine which causes salivation): ~0.05 mg/kg

CNC(=O)Oc1ccc2c(c1)[C@]1(C)CCN(C)[C@@H]1N2C [physostigmine, reference compound]
inhibition ([4]; Rattus norvegicus, ip, read-out: Inhibition (percentage of reduction in the increase in the intensity of the band from 6.4 to 9.6 Hz)): 76.8% | inhibition of the effects which scopolamine exerts on the electroencephalogram ([4]; rats, i.p.): inhibit the effects which scopolamine exerts on the electroencephalogram | influence on the amnesing effect of scopolamine ([1]; i.p., group 4 vs. group 3): favorable action against the amnesing effect of scopolamine, similar to that of the compounds of the invention | inhibitory activity on scopolamine hyperactivity, administered more than 15 minutes before measurements [5]: inactive

COC(=O)C1=CCCN(C)C1 [arecoline, methyl 1,2,5,6-tetrahydro-1-methyl-3-pyridinecarboxylate]
potentiation of the tremogenic effect of oxotremorine 20 minutes after administration [2, 6]: gives no potentiation | potentiation of the salivatory effect of oxotremorine 20 minutes after administration [3, 6]: gives no potentiation
